Measurements as given in patent US8993330B2, “Composition for a mitotic remodeling of chromosomes” (Centre National de la Recherche Scientifique, priority 2005, dated 2015).

How the values were obtained:
erythrocyte nuclei = test: DNA replication of erythrocyte nuclei in Xenopus egg extracts (32P-dCTP incorporation, TCA precipitation); type: biochemical; details: for replication rate of erythrocyte nuclei: permeabilized erythrocyte nuclei in S-phase extract, 300 μM TSA, 600 μM CTPB or 300 μM AA
Protocol: FIG. 1B: Permeabilized erythrocyte nuclei were incubated in S-phase or M-phase extract for 45 minutes before CaCl2 activation to trigger S phase. 5 μl samples were taken at different times. DNA replication was monitored by TCA precipitation of ^32PαdCTP incorporated into DNA and expressed as the percentage replicated DNA compared to the total input DNA. Sperm nuclei incubated in S-phase extract were used as a control.
(§1) 5 μl samples were taken at different times and DNA replication was monitored by TCA precipitation of ^32PαdCTP incorporated into DNA.
FIG. 5A: Erythrocyte chromatin was incubated either in M-phase extract and immediately driven into S phase by Ca^++, or in M-phase extract for 45 min before induction into S phase by Ca^++ in the absence or presence of ICRF. Control sperm chromatin in M-phase extracts induced to enter S phase by calcium is shown. The amount of nuclei was 1000 nuclei/μl egg extract for sperm nuclei, and 500 nuclei/μl egg extract for erythrocyte nuclei to keep the chromatin concentration constant.
(§2) Demembranated sperm nuclei were prepared and used as described in (Menut et al., 1999), and erythrocyte nuclei were purified from Xenopus blood as described. Nuclei were incubated in S-phase (1,000 nuclei/μl), or M-phase (CSF) extracts that were activated with 1 mM CaCl2. DNA synthesis was measured by ^32P-dCTP incorporation, as previously described (Menut et al., 1999).

sperm nuclei = test: DNA replication of sperm nuclei in Xenopus S-phase egg extract (32P-dCTP incorporation, TCA precipitation); type: biochemical; details: for replication rate of sperm chromatin: 300 μM TSA and 300 μM CTPB
Protocol: as §1
Sperm chromatin was incubated in S-phase extract in the presence of 50 μg/ml ICRF193 at the beginning of the reaction or after 45 min (during the elongation phase). DNA replication was monitored by TCA precipitation of the replicated DNA.
as §2

[1] = test system: erythrocyte or sperm nuclei; test: Chromosome condensation of nuclei in mitotic egg extract (Hoechst staining); type: biochemical, Xenopus; details: erythrocyte or sperm nuclei in M-phase extract; 50 μg/ml
Protocol: FIG. 5B: Demembranated erythrocyte nuclei or sperm nuclei were incubated in a mitotic egg extract in the presence or absence of 50 μg/ml of the topoisomerase II inhibitor ICRF193. DNA was stained with Hoechst dye for chromosome formation analysis.

chromatin loop domains = test: DNA loop size by maximum fluorescent halo technique (MFHT); type: biochemical, Xenopus
Protocol: FIG. 4D: Nuclei were recovered on coverslips and submitted to the maximum fluorescent halo technique (MFHT) for DNA loop size measurements (Material and Methods).
FIG. 7C: Sperm nuclei collected at different times during replication or following M-phase were recovered on coverslips and submitted to MFHT for DNA loop size measurements. Entry into mitosis was induced by incubating post-replicate embryo nuclei in M-phase extract in the presence or absence of ICRF.
Maximum Fluorescent Halo Radius (MFHR) were determined by treating non-fixed nuclei on coverslips. They were first dipped for 1 min in ice cold NP40 buffer (0.5% NP40, 10 mM MgCl2, 0.5 mM CaCl2, 50 mM Hepes pH 7.8) and then sequentially dipped for 30 s in a solution containing 0.2 mM MgCl2, 10 mM Tris (pH 7.4) with 0.5 M, 1 M, 1.5 M, 2 M NaCl. They were then incubated in 100 μg/ml ethidium bromide, 2 M NaCl and exposed for 1 min to short wave UV light before observation by fluorescence (Buongiorno-Nardelli et al., 1982). Halo and matrix diameters were estimated using a micrometrics slide. DNA loop size was calculated taking into account that the loop size is 2 fold the MFHR. The length of linear DNA was calculated using the correspondence of 1 μm to 2.3 kbp.

ORC2 = ORC2 recruitment to chromatin (chromatin purification, anti ORC2 immunoblot); type: biochemical, Xenopus
Protocol: FIG. 5C: Chromatin was purified and proteins analyzed by SDS gel electrophoresis as described in Material and Methods. Erythrocyte nuclei (500 nuclei/μl egg extract) or sperm nuclei (1000 nuclei/μl egg extract) were incubated in a mitotic egg extract, induced to enter S phase with calcium, in the presence (+) or absence (−) of ICRF 193. Chromatin was purified 30 min after calcium activation and analyzed by immunoblot with a Xenopus anti ORC2 antibody.
50 μl samples were diluted with 5 volumes of extract buffer (XB: 100 mM KCl, 0.1 mM CaCl2, 1 mM MgCl2, 10 mM KOH-Hepes pH 7.7, 50 mM sucrose) and pelleted by centrifugation at 7500 g for 12 min through a 0.7 M sucrose cushion. Nuclear pellets were resuspended in XB, 0.3% Triton X-100 and incubated for 5 min on ice. After a further 5,000 g centrifugation for 5 min, chromatin pellets were recovered and adjusted in Laemmli Buffer.

[2] = sperm nuclei in S-phase extract
[3] = inhibitor present during mitotic remodeling in M-phase extract, chromatin purified 30 min after calcium activation

CCCCCCCCCCCCCCCc1cccc(O)c1C(=O)O [AA, anacardic acid]
sensitivity of replication of erythrocyte nuclei remodeled in mitosis (erythrocyte nuclei; 45 min in M-phase extract, then S-phase extract containing 300 μM AA): as sensitive as sperm nuclei | replication rate of erythrocyte nuclei (erythrocyte nuclei): did not further inhibit | replication of sperm nuclei (sperm nuclei; sperm nuclei in S-phase extract, 300 μM AA): strongly inhibited

CCCCCCCCCCCCCCCc1cccc(OCC)c1C(=O)Nc1ccc(Cl)c(C(F)(F)F)c1 [CTPB]
replication rate of erythrocyte nuclei (erythrocyte nuclei): failed to significantly affect | reversal of AA inhibition of sperm nuclei replication (sperm nuclei; S-phase extract, prior incubation of 600 μM CTPB, 300 μM AA): reversed | replication rate of sperm chromatin (sperm nuclei; [2]): no significant effect

CC(/C=C/C(=O)NO)=C\[C@@H](C)C(=O)c1ccc(N(C)C)cc1 [TSA, trichostatin]
replication rate of erythrocyte nuclei (erythrocyte nuclei): failed to significantly affect | replication rate of sperm chromatin (sperm nuclei; [2]): no significant effect

ICRF 193
chromosome condensation [1]: prevented chromosome condensation | mitotic remodeling (loop size reduction) of post-replicative nuclei (chromatin loop domains; post-replicative embryonic nuclei in M-phase extract): blocked | S-phase dependent increase in loop size (chromatin loop domains; sperm nuclei during replication in S phase, data not shown): prevented | rate of replication of erythrocyte nuclei (erythrocyte nuclei; 45 min in M-Phase extract containing ICRF 193 before S phase induction): very low rate of replication | DNA replication of sperm chromatin (sperm nuclei; S-phase extract, 50 μg/ml at the beginning of the reaction or after 45 min): does not interfere with DNA replication | ORC recruitment (ORC2; inhibition of loop size remodeling, post-replicative embryonic nuclei and erythrocyte nuclei): decreases | recruitment of ORC2 onto erythrocyte chromatin for the subsequent S-phase (ORC2; [3]): dramatically reduced | recruitment of ORC2 onto sperm chromatin for the subsequent S-phase (ORC2; [3]): not
